Format in all cases: biochemical
One assay has as its target T1, Aurora B (Homo sapiens, UniProt Q96GD4).
T1 construct: purchased Invitrogen PV3970
Kind of assay: Aurora B inhibition assay (Z-Lyte). The following applies: 28 nM Aurora B, 128 μM ATP; read-out: IC50 Ranges Aurora B. As for the experimental part:
Aurora B inhibition was determined using the Z-Lyte assay kit from Invitrogen. The assay was performed using the recommended manufacturer's instructions with 128 μM ATP and 28 nM Aurora B (Invitrogen cat #PV3970). The % inhibition values were determined according to the manufacturer's directions and IC50 values were obtained using a non-linear 4 point logistic curve fit (XLfit4, IDBS)

In the next assay the target is T2, human TTK (Homo sapiens, UniProt P33981).
T2 construct: amino terminal GST fusion of full length human TTK; purchased Invitrogen
T2 sequence (P33981 1-857): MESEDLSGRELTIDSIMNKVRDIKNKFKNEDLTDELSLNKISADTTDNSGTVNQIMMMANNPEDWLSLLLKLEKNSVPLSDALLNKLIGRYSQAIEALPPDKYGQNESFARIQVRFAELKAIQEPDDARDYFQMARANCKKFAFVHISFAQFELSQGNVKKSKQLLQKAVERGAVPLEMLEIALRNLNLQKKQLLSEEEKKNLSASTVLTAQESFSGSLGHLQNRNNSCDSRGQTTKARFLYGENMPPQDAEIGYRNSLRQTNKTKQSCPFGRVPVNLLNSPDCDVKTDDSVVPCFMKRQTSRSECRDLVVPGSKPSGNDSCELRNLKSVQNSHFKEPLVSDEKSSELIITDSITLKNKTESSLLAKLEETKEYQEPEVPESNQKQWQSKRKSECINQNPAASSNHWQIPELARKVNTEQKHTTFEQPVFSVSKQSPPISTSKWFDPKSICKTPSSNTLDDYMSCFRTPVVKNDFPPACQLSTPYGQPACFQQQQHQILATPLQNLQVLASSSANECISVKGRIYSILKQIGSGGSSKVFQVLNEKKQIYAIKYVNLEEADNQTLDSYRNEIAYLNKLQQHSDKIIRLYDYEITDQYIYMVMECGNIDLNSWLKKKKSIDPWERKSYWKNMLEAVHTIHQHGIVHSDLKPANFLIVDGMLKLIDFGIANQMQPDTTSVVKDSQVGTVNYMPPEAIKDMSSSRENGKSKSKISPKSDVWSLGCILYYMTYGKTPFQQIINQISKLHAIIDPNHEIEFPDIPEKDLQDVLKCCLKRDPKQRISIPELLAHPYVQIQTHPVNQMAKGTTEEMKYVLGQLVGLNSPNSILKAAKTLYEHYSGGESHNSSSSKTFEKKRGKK
Kind of assay: TTK inhibition assay (indirect ELISA). Particulars: GST-TTK 0.68 nM, 16 μM ATP; read-out: IC50 Ranges TTK. On the technique in general: An ELISA detects its analyte on a solid surface through an enzyme-linked reagent.

The target of the next assay is T3, human PLK4 (Homo sapiens, UniProt O00444).
T3 construct: amino terminal GST fusion of residues 1-391 of human PLK4; made in house; host or cells: E. coli
T3 sequence (O00444 1-391): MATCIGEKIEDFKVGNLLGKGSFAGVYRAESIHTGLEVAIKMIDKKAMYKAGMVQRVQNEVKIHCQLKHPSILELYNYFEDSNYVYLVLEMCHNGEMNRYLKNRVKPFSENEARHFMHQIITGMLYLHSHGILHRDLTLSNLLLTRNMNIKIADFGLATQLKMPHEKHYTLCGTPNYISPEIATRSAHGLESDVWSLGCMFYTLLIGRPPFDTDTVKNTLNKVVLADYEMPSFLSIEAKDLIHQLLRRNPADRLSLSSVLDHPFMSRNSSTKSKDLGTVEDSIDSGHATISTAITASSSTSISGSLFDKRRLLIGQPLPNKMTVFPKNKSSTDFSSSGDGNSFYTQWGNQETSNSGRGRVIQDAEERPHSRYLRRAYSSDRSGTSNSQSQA
As to the kind of experiment: PLK4 inhibition assay (indirect ELISA). Particulars: GST-PLK4 4 nM, 15 μM ATP; read-out: IC50 Ranges PLK4. How it is done:
Active PLK4 was purified from an E. coli expression system as an amino terminal GST fusion of residues 1-391 of human PLK4. The protein was purified from clarified cell extracts after induction at 15° C. overnight using glutathione sepharose, gel permeation chromatography, and ion exchange (Resource Q). The resulting protein was dephosphorylated with lambda phosphatase (NEB cat#P0753), and resolved from the phosphatase using gluthione sepharose. The dephosphorylated GST-PLK4 was stored in aliquots at −80° C. until use.
PLK4 activity was measured using an indirect ELISA detection system. GST-PLK4 (4 nM) was incubated in the presence of 15 μM ATP (Sigma cat#A7699), 50 mM HEPES-Na^2+ pH 7.5, 10 mM MgCl2, 0.01% Brij 35 (Sigma cat#03-3170), in a 96 well microtitre plate pre-coated with MBP (Millipore cat#30-011). The reaction was allowed to proceed for 30 minutes, followed by 5 washes of the plate with Wash Buffer (phosphate buffered saline supplemented with 0.2% Tween 20), and incubation for 30 minutes with a 1:3000 dilution of primary antibody (Cell Signaling cat#9381). The plate was washed 5 times with Wash Buffer, incubated for 30 minutes in the presence of secondary antibody coupled to horse radish peroxidase (BioRad cat#1721019, 1:3000 concentration), washed an additional 5 times with Wash Buffer, and incubated in the presence of TMB substrate (Sigma cat#T0440). The colourimetric reaction was allowed to continue for 5 minutes, followed by addition of stop solution (0.5 N sulphuric acid), and quantified by detection at 450 nm with either a monochromatic or filter based plate reader (Molecular Devices M5 or Beckman DTX880, respectively).
Compound inhibition was determined at either a fixed concentration (10 μM) or at a variable inhibitor concentration (typically 0.5 μM to 0.001 μM in a 10 point dose response titration). Compounds were pre-incubated in the presence of enzyme for 15 minutes prior to addition of ATP and the activity remaining quantified using the above described activity assay. The % Inhibition of a compound was determined using the following formula; % Inhibition=100×(1-(experimental value−background value)/(high activity control−background value)). The IC50 value was determined using a non-linear 4 point logistic curve fit (XLfit4, IDBS) with the formula; (A+(B/(1+((x/C)̂D)))), where A=background value, B=range, C=inflection point, D=curve fit parameter.

T1 sequence (Q96GD4 whole entry): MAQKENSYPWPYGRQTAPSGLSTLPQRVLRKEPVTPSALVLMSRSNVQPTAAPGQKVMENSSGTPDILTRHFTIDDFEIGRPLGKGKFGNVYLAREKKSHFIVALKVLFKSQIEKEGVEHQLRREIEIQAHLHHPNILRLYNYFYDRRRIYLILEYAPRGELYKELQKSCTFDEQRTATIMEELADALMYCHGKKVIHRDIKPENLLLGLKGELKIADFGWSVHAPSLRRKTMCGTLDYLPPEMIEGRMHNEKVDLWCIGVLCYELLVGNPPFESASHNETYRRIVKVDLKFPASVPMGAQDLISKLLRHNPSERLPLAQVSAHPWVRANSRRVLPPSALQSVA

In the case of `CN1CCC(Oc2ccc(-c3n[nH]c4ccc(C(=O)NC(c5ccccn5)C5CCC5)cc34)cc2)CC1` (centres unmarked) [Example A210], the IC50 on Aurora B, at human TTK and at human PLK4 was at most 5 µM each time.

On to `CN1CCC(Oc2ccc(-c3n[nH]c4ccc(NC(=O)C(c5ccsc5)N5CCCC5)cc34)cc2)CC1` (centres unmarked) [Example A7, N-(3-(4-((1-methylpiperidin-4-yl)oxy)phenyl)-1H-indazol-5-yl)-2-(pyrrolidin-1-yl)-2-(thiophen-3-yl)acetamide], for which the IC50 at Aurora B and at human PLK4 was at most 5 µM each time.

Take `COc1cc(-c2n[nH]c3ccc(C(=O)NC(c4ccccn4)C4CC4)cc23)ccc1OC1CCN(C=O)CC1` (centres unmarked) [Example A206, N-(cyclopropyl(pyridin-2-yl)methyl)-3-(4-((1-formylpiperidin-4-yl)oxy)-3-methoxyphenyl)-1H-indazole-5-carboxamide]: the IC50 at Aurora B, on human TTK and on human PLK4 was at most 5 µM in each case.

For `CN(C)CC(=O)N1CCC(Oc2ccc(-c3n[nH]c4ccc(C(=O)NC(c5ccccc5)C5CC5)cc34)cc2)CC1` (centres unmarked) [Example A130, N-(cyclopropyl(phenyl)methyl)-3-(4-((1-(2-(dimethylamino)acetyl)piperidin-4-yl)oxy)phenyl)-1H-indazole-5-carboxamide], the IC50 on Aurora B and at human PLK4 was at most 5 µM each time.

As for `CN1CCC(Oc2ccc(-c3n[nH]c4ccc(C(=O)NC(c5ccccn5)C5CCCC5)cc34)cc2)CC1` (centres unmarked) [Example A208, N-(cyclopentyl(pyridin-2-yl)methyl)-3-(4-((1-methylpiperidin-4-yl)oxy)phenyl)-1H-indazole-5-carboxamide], the IC50 at Aurora B and at human PLK4 was at most 5 µM each time.

Regarding `O=C(N[C@@H](c1ncccc1Cl)C1CC1)c1ccc2[nH]nc(-c3ccc(OC4CCN(C5COC5)CC4)cc3)c2c1` [Example A215, (R)—N-((3-chloropyridin-2-yl)(cyclopropyl)methyl)-3-(4-((1-(oxetan-3-yl)piperidin-4-yl)oxy)phenyl)-1H-indazole-5-carboxamide], the IC50 at human TTK and at human PLK4 was at most 5 µM in each case.

Turning to `O=C(Nc1ccc2[nH]nc(-c3ccc(N4CCC(O)CC4)cc3)c2c1)C(c1ccsc1)N1CCCC1` (centres unmarked) [Example A9, N-(3-(4-(4-hydroxypiperidin-1-yl)phenyl)-1H-indazol-5-yl)-2-(pyrrolidin-1-yl)-2-(thiophen-3-yl)acetamide], the IC50 on Aurora B and on human PLK4 was at most 5 µM each time.

As to `CN1CCC(Oc2ccc(-c3n[nH]c4ccc(NC(=O)C(c5ccccn5)C5CCCC5)cc34)cc2)CC1` (centres unmarked) [Example A179, 2-cyclopentyl-N-(3-(4-((1-methylpiperidin-4-yl)oxy)phenyl)-1H-indazol-5-yl)-2-(pyridin-2-yl)acetamide], the IC50 on Aurora B and at human PLK4 was at most 5 µM in each case.

With `O=CN1CCC(Oc2ccc(-c3n[nH]c4ccc(C(=O)N[C@H](c5ncccc5Cl)C5CC5)cc34)cc2)CC1` [Example A212, (S)—N-((3-chloropyridin-2-yl)(cyclopropyl)methyl)-3-(4-((1-formylpiperidin-4-yl)oxy)phenyl)-1H-indazole-5-carboxamide], the IC50 on Aurora B, at human TTK and on human PLK4 was at most 5 µM throughout.

For `CN1CCC(Oc2ccc(-c3n[nH]c4ccc(C(=O)NC(c5ccccc5)C5CC5)cc34)cc2)CC1` (centres unmarked) [Example A24, N-(cyclopropyl(phenyl)methyl)-3-(4-((1-methylpiperidin-4-yl)oxy)phenyl)-1H-indazole-5-carboxamide], the IC50 at Aurora B and on human PLK4 was at most 5 µM in each case.

Turning to `CC[C@@H](NC(=O)c1ccc2[nH]nc(-c3ccc(OC4CCN(C)CC4)cc3)c2c1)c1ccccc1Cl` [Example A131, (R)—N-(1-(2-chlorophenyl)propyl)-3-(4-((1-methylpiperidin-4-yl)oxy)phenyl)-1H-indazole-5-carboxamide], the IC50 at Aurora B and on human PLK4 was at most 5 µM in each case.

As to `CN1CCN(c2ccc(-c3n[nH]c4ccc(NC(=O)C(c5ccsc5)N5CCCC5)cc34)cc2)C(=O)C1` (centres unmarked) [Example A94, N-(3-(4-(4-Methyl-2-oxopiperazin-1-yl)phenyl)-1H-indazol-5-yl)-2-(pyrrolidin-1-yl)-2-(thiophen-3-yl)acetamide], the IC50 at human TTK and on human PLK4 was at most 5 µM in each case.

Turning to `O=C(N[C@H](c1ncccc1Cl)C1CC1)c1ccc2[nH]nc(-c3ccc(OC4CCN(C5COC5)CC4)cc3)c2c1` [Example A216, (S)—N-((3-chloropyridin-2-yl)(cyclopropyl)methyl)-3-(4-((1-(oxetan-3-yl)piperidin-4-yl)oxy)phenyl)-1H-indazole-5-carboxamide], the half-inhibitory concentration (IC50) on human TTK and on human PLK4 was at most 5 µM throughout.

As to `CCN(C(=O)Nc1ccc2[nH]nc(-c3ccc(N4CCOCC4)cc3)c2c1)c1ccccc1` [Example A72, 1-ethyl-3-(3-(4-morpholinophenyl)-1H-indazol-5-yl)-1-phenylurea], the IC50 at human TTK and at human PLK4 was at most 5 µM each time.

Turning to `CN1CCC(Oc2ccc(-c3n[nH]c4ccc(C(=O)N[C@H](c5ccccc5)C5CC5)cc34)cc2)CC1` [Example A42, (S)—N-(cyclopropyl(phenyl)methyl)-3-(4-((1-methylpiperidin-4-yl)oxy)phenyl)-1H-indazole-5-carboxamide], the IC50 at Aurora B and at human PLK4 was at most 5 µM in each case.

Consider `O=C(NC(c1ccsc1)C1CC1)c1ccc2[nH]nc(-c3ccc(N4CCC(O)CC4)cc3)c2c1` (centres unmarked) [Example A101, N-(cyclopropyl(thiophen-3-yl)methyl)-3-(4-(4-hydroxypiperidin-1-yl)phenyl)-1H-indazole-5-carboxamide], for which the IC50 on Aurora B and at human PLK4 was at most 5 µM in each case.

As usually defined, the IC50 is the concentration that inhibits the measured activity by half.

The values are drawn from patent publication US20140051679A1, “KINASE INHIBITORS AND METHOD OF TREATING CANCER WITH SAME” (UNIVERISTY HEALTH NETWORKS, priority 2011, published 2014).
